Values quoted from earlier work in patent US6641611B2, “Therapeutic coating for an intravascular implant” (priority 2001, dated 2003).
Where two headings read alike, the source gives them in different places.

What was measured:
[1] = for diabetes: high doses

diabetes ([1]; nonhuman primates): not
diabetes ([1]; rats): causes diabetes
increase in rapamycin levels in combination compared to rapamycin alone (monkeys, fixed doses of both drugs in combination): 5 fold
Compound: CO[C@H]1C[C@@H]2CC[C@@H](C)[C@@](O)(O2)C(=O)C(=O)N2CCCC[C@H]2C(=O)O[C@H]([C@H](C)C[C@@H]2CC[C@@H](O)[C@H](OC)C2)CC(=O)[C@H](C)/C=C(\C)[C@@H](O)[C@@H](OC)C(=O)[C@H](C)C[C@H](C)/C=C/C=C/C=C/1C [rapamycin]
body weight effect ([1]; several species): weight loss
tolerability (fixed high dose monotherapy): well tolerated
